Measured values published in US5859036A, “3,4-diarylthiazolin-2-one or -2-thione derivatives, their methods of preparation and their uses in their methods of preparation and their uses in therapeutics” (Laboratories UPSA, priority 1997, dated 1999).

How the values were obtained:
COX-2 = biological target: T1, COX-2 (Ovis aries, UniProt P79208); assay: Inhibition of COX-2 enzymatic activity (purified enzyme from ewe placenta, PGE2 by EIA); type: biochemical; conditions: for IC50: 1 U COX-2, 10 min preincubation at 25° C., 4 μM arachidonic acid, 5 min, n=1 to 4; for Selectivity COX-1/COX-2 ratio: ratio of IC50 COX-1 / IC50 COX-2
T1 construct: purified enzyme from ewe placenta; from tissue; host or cells: ewe placenta
T1 sequence (P79208 17-603): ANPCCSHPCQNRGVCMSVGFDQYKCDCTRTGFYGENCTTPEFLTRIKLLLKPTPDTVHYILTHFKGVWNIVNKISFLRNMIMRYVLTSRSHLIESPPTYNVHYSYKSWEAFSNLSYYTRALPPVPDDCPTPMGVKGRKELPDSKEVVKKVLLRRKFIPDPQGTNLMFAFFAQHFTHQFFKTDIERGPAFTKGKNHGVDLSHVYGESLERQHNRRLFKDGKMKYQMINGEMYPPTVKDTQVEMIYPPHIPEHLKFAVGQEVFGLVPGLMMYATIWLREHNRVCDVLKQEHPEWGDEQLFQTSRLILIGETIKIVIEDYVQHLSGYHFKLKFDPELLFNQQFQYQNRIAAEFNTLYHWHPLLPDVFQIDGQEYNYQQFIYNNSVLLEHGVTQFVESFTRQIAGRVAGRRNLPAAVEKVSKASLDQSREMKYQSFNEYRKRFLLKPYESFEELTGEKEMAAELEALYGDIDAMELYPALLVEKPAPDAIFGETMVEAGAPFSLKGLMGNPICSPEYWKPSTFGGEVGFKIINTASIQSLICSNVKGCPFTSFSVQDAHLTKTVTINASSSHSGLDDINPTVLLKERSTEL
Description: (§1) Inhibition of the COX-1 and COX-2 enzymatic activities The molecule studied is preincubated for 10 minutes at 25° C. with 2 U of COX-1 (purified enzyme from ram seminal vesicles) or 1 U of COX-2 (purified enzyme from ewe placenta). Arachidonic acid (6 μM for COX-1,4 μM for COX-2) is added to the reaction medium and incubation is carried out for 5 minutes at 25° C. When incubation has ended, the enzymatic reaction is stopped by the addition of 1 N HCl and the PGE2 produced is determined by EIA. The results are expressed in the form of IC50, concentration in […] corresponding to 50% inhibition of the maximal enzymatic activity upon COX-1 and COX-2 (n=1 to 4 determinations).

COX-1 = biological target: T2, COX-1 (Ovis aries, UniProt P05979); assay: Inhibition of COX-1 enzymatic activity (purified enzyme from ram seminal vesicles, PGE2 by EIA); type: biochemical; conditions: 2 U COX-1, 10 min preincubation at 25° C., 6 μM arachidonic acid, 5 min; n=1 to 4
T2 construct: purified enzyme from ram seminal vesicles; from tissue; host or cells: ram seminal vesicles
T2 sequence (P05979 25-600): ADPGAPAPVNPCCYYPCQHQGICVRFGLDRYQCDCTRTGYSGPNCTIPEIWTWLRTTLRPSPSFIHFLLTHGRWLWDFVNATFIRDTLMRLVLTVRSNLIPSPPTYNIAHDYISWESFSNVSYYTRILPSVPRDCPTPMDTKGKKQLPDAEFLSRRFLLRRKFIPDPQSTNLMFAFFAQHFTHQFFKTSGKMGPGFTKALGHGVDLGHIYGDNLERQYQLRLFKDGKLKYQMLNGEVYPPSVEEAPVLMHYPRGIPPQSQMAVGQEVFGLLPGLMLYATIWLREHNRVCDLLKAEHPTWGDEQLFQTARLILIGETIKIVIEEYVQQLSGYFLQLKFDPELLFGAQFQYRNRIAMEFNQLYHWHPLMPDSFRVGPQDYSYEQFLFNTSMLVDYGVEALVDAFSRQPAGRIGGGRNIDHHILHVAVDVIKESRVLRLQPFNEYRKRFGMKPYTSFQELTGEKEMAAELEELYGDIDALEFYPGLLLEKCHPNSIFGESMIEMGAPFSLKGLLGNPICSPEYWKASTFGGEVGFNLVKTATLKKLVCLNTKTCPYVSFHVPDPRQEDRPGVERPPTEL
Description: as §1

[1] = Anti-inflammatory activity, test of oedema with carrageenan in rats; type: in vivo; conditions: rat, oral, product 1 h before plantar injection of 2% carrageenan; dose inducing 50% of the maximal decrease of oedema volume; read-out: Anti-inflammatory Activity ID50
Description: (§2) The anti-inflammatory activity of the compounds of the Examples has been evaluated according to the method of oedema with carrageenan and the analgesic activity has been evaluated according to the method of arthritis with kaolin.
Anti-inflammatory activity:
The anti-inflammatory activity is evaluated in rats by the test of oedema with carrageenan. The product is administered orally at a rate of 2.5 ml/100 g (n=6 animals per dose) 2 hours 30 minutes after a water overload taken orally (2.5 ml/100 g). One hour after administration of the product, the oedema is induced by plantar subcutaneous injection of aqueous 2% carrageenan solution. The results are expressed as ID50, dose in mg/kg, calculated by linear regression, which induces 50% of the maximal decrease of the volume of the oedema obtained from each product tested.

[2] = Analgesic activity, test of arthritis with kaolin in rats; type: in vivo; conditions: 0.5 h; rat, oral, 30 min after intra-articular 10% kaolin; dose inducing 50% decrease of the maximal quotations of control
Description: as §2
The analgesic activity is evaluated in rats by the test of arthritis with kaolin. Thirty minutes after intra-articular administration of an aqueous 10% suspension of kaolin, the product is administered orally at a rate of 1 ml/ 100 g (n=10 animals per dose). The results are expressed in the form of ED50, the dose in mg/kg which induces 50% decrease of the maximal quotations obtained in the control batch, calculated by linear regression.

CS(=O)(=O)c1ccc(-c2csc(=S)n2-c2cccc(Cl)c2)cc1 [Example 9]
IC50 (COX-2): 3.34 µM | Selectivity COX-1/COX-2 ratio (COX-2): 30 | IC50 (COX-1): 100 µM

NS(=O)(=O)c1ccc(-c2csc(=S)n2-c2ccc(F)cc2)cc1 [Example 13]
IC50 (COX-2): 0.93 µM | Selectivity COX-1/COX-2 ratio (COX-2): 34 | IC50 (COX-1): 32 µM

COc1ccc(-n2c(-c3ccc(S(N)(=O)=O)cc3)csc2=S)cc1Cl [Example 20]
IC50 (COX-2): 2 µM | Selectivity COX-1/COX-2 ratio (COX-2): 9 | IC50 (COX-1): 17.6 µM

NS(=O)(=O)c1ccc(-c2csc(=S)n2-c2cccc(F)c2)cc1 [Example 29]
IC50 (COX-2): 0.65 µM | Selectivity COX-1/COX-2 ratio (COX-2): 396 | IC50 (COX-1): 258 µM

NS(=O)(=O)c1ccc(-c2csc(=S)n2-c2ccc(F)c(F)c2)cc1 [Example 30]
IC50 (COX-2): 0.21 µM | Selectivity COX-1/COX-2 ratio (COX-2): 94 | IC50 (COX-1): 19.8 µM

NS(=O)(=O)c1ccc(-c2csc(=O)n2-c2ccc(Cl)c(Cl)c2)cc1 [Example 39]
IC50 (COX-2): 0.14 µM | Selectivity COX-1/COX-2 ratio (COX-2): 14 | IC50 (COX-1): 1.94 µM

NS(=O)(=O)c1ccc(-c2csc(=O)n2-c2cccc(F)c2)cc1 [Example 45]
ED50 [1]: 2.8 mg/kg | IC50 (COX-2): 0.24 µM | Selectivity COX-1/COX-2 ratio (COX-2): 1367 | IC50 (COX-1): 335 µM | ED50 [2]: 1.3 mg/kg

CS(=O)(=O)c1ccc(-c2csc(=O)n2-c2ccc(Cl)cc2)cc1 [Example 46]
IC50 (COX-2): 0.57 µM | Selectivity COX-1/COX-2 ratio (COX-2): 286 | IC50 (COX-1): 163 µM
